# Test results published in PMC9520760 (ACS Omega, 2022).
# What was measured:
# MDA-MB-231 cells = assay: MTT cell proliferation assay, MDA-MB-231; type: cell-based, human; conditions: for IC50: Homo sapiens, MDA-MB-231, 48 h, read-out: IC50 (Mean ± SEM) MDA-MB-231; for antiproliferative activity against MDA-MB-231: MTT assay
# HEK-293 cells = assay: MTT toxicity in normal cell line HEK-293; type: cell-based; conditions: Homo sapiens, HEK293, 48 h, read-out: IC50 (Mean ± SEM) HEK-293
# PC-3 cells = assay: MTT cell proliferation assay, PC-3; type: cell-based; conditions: Homo sapiens, PC-3, 48 h, read-out: IC50 (Mean ± SEM) PC-3
# MCF-7 cells = assay: MTT cell proliferation assay, MCF-7; type: cell-based, human; conditions: for IC50: Homo sapiens, MCF7, 48 h, read-out: IC50 (Mean ± SEM) MCF-7; for antiproliferative activity against MCF-7: MTT assay
# Ishikawa cell line = assay: MTT cell proliferation assay, Ishikawa; type: cell-based, human; conditions: for IC50: Homo sapiens, Ishikawa, 48 h, read-out: IC50 (Mean ± SEM) Ishikawa
# [1] = test system: various cancer cell lines; assay: MTT assay, panel of cancer cell lines; type: cell-based; conditions: Homo sapiens, read-out: IC50 against various cancer cell lines
# HeLa cells = assay: MTT cell proliferation assay, HeLa; type: cell-based, human; conditions: for IC50: Homo sapiens, HeLa, 48 h, read-out: IC50 (Mean ± SEM) HeLa; for antiproliferative activity against HeLa: MTT assay
SMILES,IC50 (MDA-MB-231 cells),antiproliferative activity against MDA-MB-231 (MDA-MB-231 cells),IC50 (HEK-293 cells),IC50 (PC-3 cells),IC50 (MCF-7 cells),antiproliferative activity against MCF-7 (MCF-7 cells),IC50 (Ishikawa cell line),antiproliferative activity against Ishikawa (Ishikawa cell line; MTT assay),IC50 [1],IC50 (HeLa cells),antiproliferative activity against HeLa (HeLa cells)
Cc1nn(-c2ccccc2)c(O)c1C(c1ccc(Cl)cc1)c1c(C)nn(-c2ccccc2)c1O [3c],22.4 ± 1.34 µM,mild inhibition,> 40 µM,> 40 µM,16.3 ± 0.62 µM,good inhibition,36.9 ± 1.38 µM,weak antiproliferative activity,5.45 to 18.3 µM,32.4 ± 1.62 µM,weak antiproliferative activity
Cc1nn(-c2ccccc2)c(O)c1C(c1ccccc1)c1c(C)nn(-c2ccccc2)c1O [3a],30.8 ± 1.49 µM,weak inhibition,> 40 µM,> 40 µM,35.1 ± 1.38 µM,weak inhibition,30.2 ± 2.12 µM,,,30.7 ± 1.38 µM,weak inhibition
